Experimental data: patent US20040033944A1, “Method of treating erectile dysfunction” (priority 1999, published 2004)
Like-named read-outs stand apart in the source and are kept apart here.

Experiments:
corporal smooth muscle = details: for Acetylcholine ED50 (−Log (M)) / Sodium Nitroprusside ED50 (−Log (M)): 10 days after injection, mean SEM
Experimental: (§1) Animals: Male New Zealand White rabbits weighing 2.5-3 kg were fed either a normal rabbit diet (n=12) or a 1% cholesterol diet (n=12) (Harland Teklab, Madison, Wis.) for a total of 7.5 weeks. […] Ten days after the injection, the rabbits were euthanized and underwent penectomy with meticulous dissection of the corpora cavernosa from the tunica albuginia. Total serum cholesterol was determined using the enzymatic method prior to the initiation of the experimental diet and on serum samples drawn immediately prior to the procedure. Animal care and handling complied with published Guidelines (Institute of Laboratory Animal Resources, Commission on Life Sciences, National Research Council. Guide for the Care and Use of Laboraiton Animals. Washington: National Academy Press (1996)).
Isometric tension studies. Two corporal strips from each animal were suspended in 5 ml capacity organ baths containing Krebs physiological salt solution (122 mmol/liter NaCl. 4.7 mmol/liter KCl, 1.2 mmol/liter MgCl2, 2.5 mmol/liter CaCl2, 15.4 mmol/liter NaHCO3, 1.2 mmol/liter KH2PO4, and 5.5 mmol/liter glucose) maintained at 37° C. and oxygenated with 95% O2 and 5% CO2. Strips were attached to an adjustable force transducer and isometric responses were recorded on a multi-channel polygraph (Myograph F-60; Physiograph MK111-S; Narco Bio-Systems, Houston, Tex.). […] All subsequent testing was then performed at the optimal resting tension for each strip. Strips were sub-maximally pre-contracted with 10^−5 M norepinephrine, and after a contractile plateau was reached, acetylcholine (10^−8 to 10^−3 M) or sodium nitroprusside (10^−8 to 10^−4 M) was added cumulatively in logarithmic increments. Relaxation in response to each agent is expressed as a percentage of the active tension generated by the 10^−5 M dose of norepinephrine and converted to percentage of maximal response at each dose. These values were plotted against the negative logarithm of the agonist dose to produce relaxation dose-response curves. Logistic regression analysis with logit transformation was performed on the cumulative dose response curves from each treatment group to determine the ED25. ED50 and ED75 for each agent (Finney, Statistical Method in Biological Assay (3 ed.). London: Charles Griffin and Company LTD, p. 349-369 (1978), Kim et al, J Urol 151:198-205 (1994)).
(§2) Statistical evaluation. Each treatment group contained 6 animals (corporal strip n=12). Data are expressed as the mean±standard error of the mean (SEM). The responses of strips from each treatment group to acetylcholine or sodium nitroprusside were compared using the independent samples T-Test. […] The ED50 (sensitivity) and the maximal response were the principal outcomes assessed for each agent, and adjusting for multiple comparisons each outcome was assessed at the 0.025 level. Secondary outcomes, including cholesterol level, and the ED25 and the ED75 for each agent were tested at the 0.05 level without adjustment for multiple comparisons.
(§3) The route of administration can affect the efficacy of treatments for erectile dysfunction, as is seen in the difference between intrauretheral and intracavernosal alprostadil. […] Ten days after injection isometric tension studies were performed on corporal tissue. Sensitivity and maximal relaxation to acetylcholine (ACH) and sodium nitroprusside (SNP) were compared between treatment groups.
(§4) Ten days after injection, their corpora cavernosa were harvested, and isometric tension studies were performed. Relaxation to acetylcholine (ACH) and sodium nitroprusside (SNP) was compared within each group.
Animals: 36 New Zealand White rabbits were fed either a normal rabbit diet (n=12) or a 1% cholesterol diet (n=24) (Harland Teklab, Madison, Wis.) for a total of 7.5 weeks.

[1] = tested on: VEGF protein expression in corporal tissue; details: for VEGF immunoexpression: IC VEGF 0.9 mg, mean±SEM
Experimental: as §1, §2, §3, §4

VEGF in corporal tissue = tested on: VEGF in corporal tissue
Experimental: Animals: 36 New Zealand White rabbits were fed either a normal rabbit diet (n=12) or a 1% cholesterol diet (n=24) (Harland Teklab, Madison, Wis.) for a total of 7.5 weeks. […] Ten days after the injection, the rabbits were euthanized and underwent penectomy with meticulous dissection of the corpora cavernosa from the tunica albuginia. Total serum cholesterol was determined prior to the initiation of the experimental diet and immediately prior to the procedure.
Frozen corporal tissues were sonicated in 50 mM Tris radioimmunoprecipation assay buffer for 1 minute for protein isolation. […] The samples were quantified with a Molecular Devices Kinetic microplate reader using Apple SoftMax software. One ELISA was performed for each animal in each treatment group.
Statistical evaluation. Data are expressed as the mean standard error of the mean (SEM). […] Statistical significance was determined at the 0.05 level.

[2] = tested on: corpora cavernosa smooth muscle; details: hypercholesterolemic rabbits, three weekly intracavernosal injections of VEGF
Experimental: Fifteen male New Zealand White rabbits weighing 2 to 2.5 kg were used in a total of two arms in the study. […] Random serum total cholesterol levels were measured at the beginning of the study and after four weeks of the 1% cholesterol diet. At the end of four weeks, each rabbit underwent total penectomy and then was sacrificed. Each penis yielded two strips of tissue with a small amount of erectile tissue being placed in neutral buffered formalin 10%. The strips were suspended in tissue baths, and isometric tension studies were performed. Dose-response curves for norepinephrine were generated first in each strip to assess adrenergic-mediated cavernosal smooth muscle contraction. Next, dose-response curves for histamine were generated to assess histamine receptor mediated contraction of cavernosal smooth muscle. Submaximal contraction was then produced with 10^−3 concentration of norepinephrine and dose-response curves were then generated to evaluate endothelial-dependent (acetylcholine) smooth muscle relaxation. Once again, a submaximal contraction was produced using 10^−5 concentration of norepinephrine and dose response curves were then generated to evaluate endothelial-independent (sodium nitroprusside) smooth muscle relaxation.
Tissue. Cavernosal tissue procurement was performed under general anesthesia induced with Ketamine 50 mg/kg SC (Ketaset, Bristol Laboratories, Syracuse, N.Y.) and Xylazine 30 mg/kg SC (Rompun, Mobay Corp., Shawnee, Kans.). The penis was excised en bloc and placed in warm Krebs solution, where the corpora cavernosa were sharply dissected from the tunica albuginea producing a strip (approximately 0.3×0.3×0.7 cm.) from each corpus. The strips were then mounted in the oxygen tissue baths. After tissue collection, the rabbits were euthanized with an overdose of intravenous sodium pentobarbitol (100 mg/kg to effect). Care was taken throughout the procedure to minimize tissue manipulation.
Tissue Chambers. Each cavernosal strip was placed in a 25 ml tissue bath (Kent Scientific Corp.. Litchfield, Conn.). One end was hooked to a tissue holder and the other end w as hooked to a force transducer (FTO3, Grass Instruments, Quincy, Mass.) for determination of isometric tension. The bath was filled with a modified Kreb's physiologic salt solution with the following millimolar composition: NaCl 122, KCl 4.7, MgCl2 1.2, CaCl2 2.5, NaHCO3 15.4, KH2PO4 1.2. and glucose 5.5. A circulating water bath kept tissue chamber temperatures at 37C. Continuous aeration with 95% oxygen and 5% carbon dioxide maintained a pH of 7.4.
Optimal isometric tension determination. Each of the force transducers was connected to a transducer positioner enabling preload tension adjustment. Following suspension in the tissue chambers, the tension was periodically adjusted (at least every fifteen minutes) until the strip equilibrated at 0.5 gm. […] The optimal preload tension was then determined by contracting the tissue with 60 mM KCl Krebs solution (prepared by substituting 60 mM of sodium with equimolar amounts of potassium in Krebs-PSS solution) at increasing levels of preload (0.5 gm. increments). […] All subsequent testing was then performed at the determined optimal resting tension for each strip: Monitoring of tension was done with a four-channel polygraph (Grass 7D, Grass Instruments).
Isometric tension studies. The tissue was washed with Kreb's solution every fifteen minutes after each study until the tissue returned to baseline (at least one hour). Dose response curves for norepinephrine were obtained by cumulative addition of norepinephrine (10^−9 to 10^−4) in logarithmic increments.

[3] = tested on: trabecular smooth muscle content of corporal tissue; details: cholesterol-fed rabbits
Experimental: as §1
Statistical evaluation. Each treatment group contained 6 animals (corporal strip n=12). Data are expressed as the mean±standard error of the mean (SEM). The responses of strips from each treatment group to acetylcholine or sodium nitroprusside were compared using the independent samples T-Test. […] The ED50 (sensitivity) and the maximal response were the principal outcomes assessed for each agent, and adjusting for multiple comparisons each outcome was assessed at the 0.025 level. […]

adult rabbit penis = details: intracavernosal injections of VEGF
[4] = cholesterol-fed rabbits, IV VEGF 0.9 mg vs vehicle
[5] = cholesterol-fed rabbits, intracavernosal 0.9 mg VEGF at week 6, 10 days after injection, mean±SEM
[6] = cholesterol-fed rabbits, single intravenous bolus VEGF 0.9 mg vs vehicle

VEGF
Acetylcholine ED50 (−Log (M)) (corporal smooth muscle; Cholesterol / IC VEGF 0.9 mg): 4.94 0.25 −Log (M)
Sodium Nitroprusside ED50 (−Log (M)) (corporal smooth muscle; Cholesterol / IC VEGF 0.9 mg): 6.36 0.16 −Log (M)
Acetylcholine ED50 (−Log (M)) (corporal smooth muscle; Cholesterol / IV VEGF 0.9 mg): 6.33 0.40 −Log (M)
Sodium Nitroprusside ED50 (−Log (M)) (corporal smooth muscle; Cholesterol / IV VEGF 0.9 mg): 6.93 0.25 −Log (M)
endothelium-dependent (acetylcholine) smooth muscle relaxation, effect of VEGF treatment (corporal smooth muscle; cholesterol-fed rabbits, IC VEGF 0.9 mg vs vehicle): not affected
SNP-mediated, direct smooth muscle relaxation, effect of IV VEGF treatment (corporal smooth muscle; [4]): significantly improved
endothelium-dependent smooth muscle relaxation, effect of IV VEGF treatment (corporal smooth muscle; [4]): augmented
maximal relaxation to acetylcholine (corporal smooth muscle; [5]): 78.6±6.2 grams
maximal relaxation to sodium nitroprusside (corporal smooth muscle; [5]): 113.9±6.3 grams
sensitivity (ED50) to acetylcholine relaxation (corporal smooth muscle; [5]): 4.94±0.25 (−Log)(M)
sensitivity to sodium nitroprusside relaxation at ED50 (corporal smooth muscle; [5]): 6.36±0.16 (−Log)(M)
sodium nitroprusside relaxation ED75 (corporal smooth muscle; [5]): 5.75±0.16 (−Log)(M)
endothelium dependent (ACH-mediated) maximal corporal smooth muscle relaxation, effect of VEGF (corporal smooth muscle; [6]): significantly augmented
endothelium independent (SNP-mediated) maximal corporal smooth muscle relaxation, effect of VEGF (corporal smooth muscle; [6]): significantly augmented
sensitivity (ED50) to ACH, effect of VEGF (corporal smooth muscle; [6]): enhanced
sensitivity (ED50) to SNP, effect of VEGF (corporal smooth muscle; [6]): enhanced
VEGF immunoexpression ([1]; cholesterol-fed animals): 19.67±1.38 arbitrary units
VEGF protein immunoexpression, effect of IV VEGF ([1]; cholesterol-fed animals, IV VEGF 0.9 mg vs vehicle): augmented
VEGF immunoexpression ([1]; normal diet animals): 37.6±1.12 arbitrary units
VEGF expression, effect of VEGF therapy ([1]; single intracavernosal VEGF 0.9 mg vs vehicle): augmented
VEGF ELISA optical density (OD) minus background (VEGF in corporal tissue; cholesterol-fed animals treated with VEGF (IC)): 0.168
VEGF ELISA optical density (OD) (VEGF in corporal tissue; cholesterol-fed animals, IV VEGF administration): 0.128
Acetylcholine Percent Maximal Relaxation [2]: 94.5±8.41%
Sensitivity to Acetylcholine ED25 [2]: −5.48 ± 0.33
Sensitivity to Acetylcholine ED75 [2]: −3.50 ± 0.41
Sensitivity to Sodium Nitroprusside ED75 [2]: −5.52 ± 0.18
Sodium Nitroprusside Percent Maximal Relaxation [2]: 145 ± 8.26%
smooth muscle content, effect of VEGF treatment ([3]; IC VEGF 0.9 mg vs vehicle): not affected
trabecular smooth muscle content ([3]; IC VEGF 0.9 mg, relative to normal diet, vehicle-treated = 1.0, mean±SEM): 0.82±0.016 arbitrary units
tumescence (adult rabbit penis): approximately 80%
